In PMC9929232, “On-demand male contraception via acute inhibition of soluble adenylyl cyclase” (Nature Communications, 2023):
Values joined by “and” are separate entries in the source; they are usually repeats but may differ in a detail not shown here. Equal entries are not always repeated.

Key:
mouse sperm [1] = assay: Flagellar beat frequency of tethered mouse sperm; assay type: cell-based
Description: (§1) An inverted dark-field video microscope (IX73; Olympus) with a 10 x objective (mouse sperm) or a 20 x objective (human sperm) (UPLSAPO, NA 0.8; Olympus) was combined with a high-speed camera (ORCA Fusion; Hamamatsu). Dark-field videos were recorded with a frame rate of 200 Hz. The temperature of the heated stage was set to 37 °C (stage top incubator WSKMX; TOKAI HIT). The images were preprocessed with the ImageJ plugin SpermQ Preparator (Gaussian blur with sigma 0.5 px; subtract background method with radius 5 px) and analyzed using the ImageJ plugin SpermQ[57]. The beat frequency was determined from the highest peak in the frequency spectrum of the curvature time course, obtained by Fast Fourier Transform.

mouse sperm [2] = assay: cAMP generation in mouse sperm in vitro, incl. wash-out by dilution; details: 12 minutes
Description: For capacitation, sperm were incubated for 90 min in TYH containing 3 mg/ml BSA and 25 mM NaHCO3 in a 37 °C incubator. To control for the consequences of dilution during isolation of epididymal mouse sperm for ex vivo assays, we assessed the ability of bicarbonate to induce a prototypical pattern of tyrosine phosphorylation (pY) which is a widely used molecular hallmark of capacitation[53]. Bicarbonate-induced pY is known to be sAC dependent in vitro[20],[22],[35]. For experiments studying sperm from injected mice, ‘swim out’ was performed in 200 μl TYH, which corresponded to a 1:10 dilution from epididymis (20 μg cauda in 200 μl buffer). Capacitation-induced changes were assessed by adding 50 µl of ‘swim out’ sperm to increasing volumes of capacitating TYH buffer.
cAMP generation was measured in mouse and human sperm. […] For human sperm, aliquots of 2 × 10^6 cells were incubated for 30 min in the presence or absence of sAC inhibitor in non-capacitating or capacitating HTF buffer. In both cases, 0.1% DMSO was used as vehicle control.
After 5 min, 150 µl of sperm/inhibitor mix was diluted into 1.35 ml non-capacitating or capacitating media with no inhibitor. […] Sperm lysates were centrifuged at 2000 × g for 3 min and the cAMP in the supernatant was acetylated and quantified using the Direct cAMP ELISA kit (Enzo).

human sperm [3] = assay: Flagellar beat frequency of tethered human sperm; assay type: cell-based
Description: as §1

human sperm [4] = assay: cAMP generation in human sperm in vitro, incl. wash-out by dilution; assay type: cell-based; details: 30 minutes
Description: Samples of human semen were obtained from healthy volunteers with their prior written consent following a protocol approved by Weill Cornell Medicine’s Institutional Review Board (IRB 21-03023495). […] Semen was incubated for 30 min in a 37 °C incubator to liquefy. […] The tubes were incubated at a tilted angle of 45° at 37 °C for 60 min. Motile sperm were allowed to swim up into the HTF layer; immotile sperm and other cells or tissue debris remain in the ejaculate fraction. Up to 3 ml of the HTF layer was transferred to a fresh tube and washed twice in HTF by centrifugation (700 × g, 20 min). The supernatant was removed after the last centrifugation step and the sperm pellet was resuspended in 1 ml HTF. The purity and vitality of each sample was assessed via light microscopy. Sperm cell numbers were determined using a hemocytometer and adjusted to a concentration of 1 × 10^7 cells/ml.

human sperm [5] = assay: Acrosome reaction assay, human sperm, progesterone-evoked; assay type: cell-based
Description: Acrosome reaction was induced by incubating mouse sperm with 50 mouse solubilized zonae pellucidae for 15 min at 37 °C. Human sperm were incubated with 10 μM progesterone for 30 min at 37 °C. […] Samples were air-dried on microscope slides and fixed for 30 minutes in 100% ethanol at room temperature (RT). For acrosome staining, mouse and human sperm were incubated for 30 min in the dark with 5 μg/ml PNA-FITC or 5 μg/ml PSA-FITC, respectively, and counterstained with 2 μg/ml DAPI. After curing, slides were analyzed using a Zeiss LSM 880 Laser Scanning Confocal Microscope; images were captured with two photomultiplier and one Gallium Arsenide Phosphide detector using ZEN Imaging software. For each condition, at least 600 cells were analyzed using ImageJ 1.52.

[6] = biological target: T1, purified recombinant human sAC protein (Homo sapiens, UniProt Q96PN6); assay: In vitro adenylyl cyclase activity assay (two-column method);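 as to cyclase activity (%): 100% equals DMSO vehicle-treated control activity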; assay type: biochemical; design: cyclase activity: unit not given here; details: for cyclase activity (%): Fig. 1c normalized replicates; for cyclase activity: Fig. 1c replicates
T1 construct: human sACt protein was incubated
T1 sequence (Q96PN6 1-469 limits assumed): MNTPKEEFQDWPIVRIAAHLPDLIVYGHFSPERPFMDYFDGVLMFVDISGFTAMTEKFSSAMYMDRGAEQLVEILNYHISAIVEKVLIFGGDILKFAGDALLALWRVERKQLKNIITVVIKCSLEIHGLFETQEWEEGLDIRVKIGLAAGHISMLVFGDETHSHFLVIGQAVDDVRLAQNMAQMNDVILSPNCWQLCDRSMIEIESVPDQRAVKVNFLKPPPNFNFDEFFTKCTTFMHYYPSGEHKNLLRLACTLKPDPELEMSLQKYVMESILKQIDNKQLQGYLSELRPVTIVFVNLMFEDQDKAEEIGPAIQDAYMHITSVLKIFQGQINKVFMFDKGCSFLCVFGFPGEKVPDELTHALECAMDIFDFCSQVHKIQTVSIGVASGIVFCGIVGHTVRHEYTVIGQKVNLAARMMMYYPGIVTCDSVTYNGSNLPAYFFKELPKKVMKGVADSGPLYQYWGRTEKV
Description: All in vitro adenylyl cyclase activity assays were performed via the “two-column” method measuring the conversion of [α-^32P] ATP into [^32P] cAMP[54], as previously described. Briefly, human sACt protein was incubated in buffer containing 50 mM Tris-HCl, pH 7.5, 4 mM MgCl2, 2 mM CaCl2, 1 mM ATP, 3 mM DTT, 40 mM NaHCO3 in the presence of the indicated concentrations of different sAC inhibitors or vehicle (1% DMSO).

[7] = sheet Fig. 2a replicates, 5 μM TDI-10229 or 10 nM TDI-11861 present
[8] = sheet Fig. 2b replicates, 5 min preincubation in 5 μM TDI-10229 or 10 nM TDI-11861, diluted 1:100 into inhibitor-free media
[9] = sheet Fig. 2c replicates, 5 μM TDI-10229 or 10 nM TDI-11861 present
[10] = sheet Fig. 2d replicates, 5 min preincubation in 5 μM TDI-10229 or 10 nM TDI-11861, diluted 1:100 into inhibitor-free media
[11] = concentration (uM) -0.52288 [sic]
[12] = concentration (uM) -1.95424 [sic]
[13] = concentration (uM) -2.43136 [sic]
[14] = concentration (uM) -2.90848 [sic]
[15] = concentration (uM) -3.38561 [sic]
[16] = concentration (uM) -3.86274 [sic]
[17] = concentration (uM) -4.33985 [sic]
[18] = concentration (uM) -4.81696 [sic]
[19] = concentration (uM) printed -1.47712

Structure (SMILES): Nc1nc(Cl)cc(-c2nn(C(F)F)cc2Cc2ccccc2OCCN2CCOC[C@@H]2CO)n1 [TDI-11861]
- Beat frequency, Basal (mouse sperm [1]; distal 10 μm of flagellum, 5 μM TDI-10229 or 10 nM TDI-11861, mean ± SEM): 14.8 ± 1.0 Hz
- Beat frequency, + HCO3- (mouse sperm [1]; distal 10 μm, 25 mM NaHCO3, 5 μM TDI-10229 or 10 nM TDI-11861, mean ± SEM): 22.7 ± 1.6 Hz
- cAMP, capacitation media (mouse sperm [2]; [7]): 0.4536 pmol/10^6 sperm and 0.2982 pmol/10^6 sperm and 0.3279 pmol/10^6 sperm and 0.1875 pmol/10^6 sperm and 0.4476 pmol/10^6 sperm and 0.4575 pmol/10^6 sperm and 0.7152 pmol/10^6 sperm and 0.6672 pmol/10^6 sperm and 0.4645 pmol/10^6 sperm and 0.4351 pmol/10^6 sperm and 0.0606 pmol/10^6 sperm and 0.2667 pmol/10^6 sperm
- cAMP, non-capacitation media (mouse sperm [2]; [7]): 1 pmol/10^6 sperm and 0.8029 pmol/10^6 sperm and 0.2251 pmol/10^6 sperm and 0.2037 pmol/10^6 sperm and 0.6722 pmol/10^6 sperm and 0.7415 pmol/10^6 sperm and 0.6566 pmol/10^6 sperm and 0.7427 pmol/10^6 sperm and 0.4253 pmol/10^6 sperm and 0.8706 pmol/10^6 sperm and 0.1092 pmol/10^6 sperm and 0.7462 pmol/10^6 sperm
- cAMP, capacitation media (mouse sperm [2]; [8]): 0.677 pmol/10^6 sperm and 1.0488 pmol/10^6 sperm and 0.28 pmol/10^6 sperm and 0.63 pmol/10^6 sperm and 0.972 pmol/10^6 sperm and 0.1159 pmol/10^6 sperm and 0.3305 pmol/10^6 sperm and 0.9745 pmol/10^6 sperm and 1.058 pmol/10^6 sperm
- cAMP, non-capacitation media (mouse sperm [2]; [8]): 0.555 pmol/10^6 sperm and 1.0234 pmol/10^6 sperm (2×) and 0.88 pmol/10^6 sperm and 0.438 pmol/10^6 sperm and 0.1502 pmol/10^6 sperm and 1.06 pmol/10^6 sperm and 0.8915 pmol/10^6 sperm and 1.0835 pmol/10^6 sperm
- Beat frequency, Basal (human sperm [3]; distal 5 µm of flagellum, 5 μM TDI-10229 or 10 nM TDI-11861, mean ± SEM): 11.4 ± 1.3 Hz
- Beat frequency, + HCO3- (human sperm [3]; distal 5 µm, 25 mM NaHCO3, 5 μM TDI-10229 or 10 nM TDI-11861, mean ± SEM): 11.0 ± 0.8 Hz
- cAMP, capacitation media (human sperm [4]; [9]): 0.4536 pmol/10^6 sperm and 0.2982 pmol/10^6 sperm and 0.3279 pmol/10^6 sperm and 0.1875 pmol/10^6 sperm and 0.4476 pmol/10^6 sperm and 0.4575 pmol/10^6 sperm and 0.7152 pmol/10^6 sperm and 0.6672 pmol/10^6 sperm and 0.4645 pmol/10^6 sperm and 0.4351 pmol/10^6 sperm and 0.0606 pmol/10^6 sperm and 0.2667 pmol/10^6 sperm
- cAMP, non-capacitation media (human sperm [4]; [9]): 0.6403 pmol/10^6 sperm and 0.8029 pmol/10^6 sperm and 0.2251 pmol/10^6 sperm and 0.2037 pmol/10^6 sperm and 0.6722 pmol/10^6 sperm and 0.7415 pmol/10^6 sperm and 0.6566 pmol/10^6 sperm and 0.7427 pmol/10^6 sperm and 0.4253 pmol/10^6 sperm and 0.8706 pmol/10^6 sperm and 0.1092 pmol/10^6 sperm and 0.7462 pmol/10^6 sperm
- cAMP, capacitation media (human sperm [4]; [10]): 0.7435 pmol/10^6 sperm and 0.3279 pmol/10^6 sperm and 0.4575 pmol/10^6 sperm and 0.7152 pmol/10^6 sperm and 0.6672 pmol/10^6 sperm and 0.4645 pmol/10^6 sperm and 0.4351 pmol/10^6 sperm and 0.0606 pmol/10^6 sperm and 0.2667 pmol/10^6 sperm and 0.2982 pmol/10^6 sperm
- cAMP, non-capacitation media (human sperm [4]; [10]): 0.059 pmol/10^6 sperm and 0.2015 pmol/10^6 sperm and 0.452 pmol/10^6 sperm and 0.1712 pmol/10^6 sperm and 1.016 pmol/10^6 sperm and 0.658 pmol/10^6 sperm and 0.9025 pmol/10^6 sperm and 0.216 pmol/10^6 sperm and 0.84 pmol/10^6 sperm and 0.1317 pmol/10^6 sperm
- toxicity to sperm (rescue of acrosome response by cAMP/IBMX) (human sperm [5]): not toxic to sperm
- Acrosome reacted (%), Prog (human sperm [5]; Fig. 2h replicates, 10 μM progesterone, 5 μM TDI-10229 or 10 nM TDI-11861): 11.2728% and 11.1787% and 11.2041% and 9.266% and 10.4762% and 13.6206%
- Acrosome reacted (%), Prog + db-cAMP/IBMX (human sperm [5]; Fig. 2h replicates, 10 μM progesterone, 5 mM db-cAMP/500 μM IBMX, 5 μM TDI-10229 or 10 nM TDI-11861): 28.3207% and 19.1712% and 18.125% and 29.0658% and 24.3412% and 18.4673%
- Acrosome reacted (%), basal + db-cAMP/IBMX (human sperm [5]; Fig. 2h replicates, 5 mM db-cAMP/500 μM IBMX, 5 μM TDI-10229 or 10 nM TDI-11861): 16.1667% and 6.667% and 10.5% and 10.6667% and 19.1045% and 11.7728%
- Acrosome reacted (%), basal (human sperm [5]; Fig. 2h replicates, 180 min capacitating media, 5 μM TDI-10229 or 10 nM TDI-11861): 12.5473% and 10% and 15.2336% and 15.1667% and 10.3704% and 13.6209%
- cyclase activity (%) [6, 11]: 0%
- cyclase activity (%) ([6]; concentration (uM) -1 [sic]): 1.344% and 1.8728% and 2.004% and 2.905% and 3.587% and 4.384%
- cyclase activity (%) [6, 12]: 19.6796% and 15.3927% and 17.558% and 30.5194% and 31.8303% and 33.3011%
- cyclase activity (%) [6, 13]: 38.6741% and 36.8021% and 41.7291% and 63.9723% and 46.6554% and 57.8417%
- cyclase activity (%) [6, 14]: 59.9199% and 65.2563% and 61.8852% and 88.985% and 69.2179% and 73.6242%
- cyclase activity (%) [6, 15]: 101.82% and 89.3095% and 88.0533% and 91.9223% and 87.6768% and 92.6716%
- cyclase activity (%) [6, 16]: 102.032% and 91.5857% and 92.0528% and 108.947% and 93.3751% and 103.72%
- cyclase activity (%) [6, 17]: 103.469% and 99.6453% and 98.4201% and 105.132% and 92.0891% and 95.6319%
- cyclase activity (%) [6, 18]: 100%
- cyclase activity (%) [6, 19]: 6.461% and 6.308% and 6.301% and 11.7225% and 11.6858% and 13.5507%
- cyclase activity [6, 11]: 2069 and 1544 and 1561.8 and 2385.2 and 2164.1 and 1653.5
- cyclase activity ([6]; concentration (uM) -1 [sic]): 2867.6 and 2750.4 and 2889.4 and 3159.9 and 3272.8 and 3037.2
- cyclase activity [6, 12]: 13763.6 and 11459.5 and 13193 and 10525 and 12002.6 and 12163.6
- cyclase activity [6, 13]: 25051.1 and 25250.8 and 29205 and 19447.2 and 16584.9 and 19908.8
- cyclase activity [6, 14]: 37676.4 and 43580.1 and 42557.3 and 26118.3 and 23558.8 and 24889.9
- cyclase activity [6, 15]: 62575.6 and 59074.4 and 59892.2 and 26901.7 and 29264.3 and 30901.4
- cyclase activity [6, 16]: 62701.3 and 60540.7 and 62541.6 and 31442.4 and 31025.6 and 34388.3
- cyclase activity [6, 17]: 63555.2 and 65732.4 and 66759.6 and 30424.8 and 30628.1 and 31835.7
- cyclase activity [6, 18]: 61494 and 65960.9 and 67806.2 and 29056.1 and 33073.3 and 33214.3
- cyclase activity [6, 19]: 5908.5 and 5607.6 and 5735.6 and 5511.7 and 5776.1 and 5930.2
